One series concerns housefly. The series can be described thus: Study of the killing effect on the housefly (direct spraying, Kearns and March chamber). The conditions noted are these: for KT50 (time where 50% of the insects were killed): 4-day old female houseflies, direct spraying, dose 0.25 g/l, Isopar L with 5% acetone. The series is classed as in vivo. As to the method: A. Study of the killing effect on the housefly.
The insects used were 4-day old female houseflies and the operation was carried out by direct spraying at a concentration of 0.25 g/1 in a Kearns and March chamber. The tested product was dissolved in Isopar L (petroleum solvent) with 5% acetone. 2 ml of solution were sprayed per second and 50 insects were used per treatment Checks were carried out every minute for 10 minutes, then after 15 minutes. The (KT50) time in minutes where 50% of the insects were killed was determined and the results are in Table I.

Series [1] concerns cockroaches (Blattella germanica). The series can be described thus: Study of the knock-down effect on cockroaches (direct spraying). The series is classed as in vivo. The conditions noted are these: for percentage of cockroaches knocked down at 100 µg/mL / percentage of cockroaches knocked down at 500 µg/mL: Blattella germanica, 5 min, after 5 minutes, 12-week old males, read-out: KD (percentage of cockroaches knocked down), printed % KILLED; for percentage of cockroaches knocked down at 100 µg/mL: 100 mg/l; for percentage of cockroaches knocked down at 500 µg/mL: 500 mg/l. As to the method: B. Study of the knock-down effect on cockroaches
The test was carried out on 12-week old male cockroaches (Blattella germanica) and the operation was carried out by direct spraying in a 13.5 cm diameter glass chamber. The product tested was dissolved in Isopar and 0.75 ml of solution was sprayed for 2.5 seconds on 20 cockroaches having been placed beforehand in the chamber. The KD (percentage of cockroaches knocked down) after 5 minutes at a dose of 500 mg/1 was determined and the products corresponding to 100% of KD insects at this does were evaluated at a dose of 100 mg/1 by the same protocol and the results are in Table II.

A short description of series [2]: Acute toxicity on mammals by oral route. The format is in vivo, rats. The settings on record: rat, in vivo, rats, vehicle corn oil, read-out: LD50 O.R. (oral route). As to the method: (§1) C. Acute toxicity on mammals
(§2) type: rats, vehicle: corn oil.
(§3) The results were expressed in LD50 mg/kg and the results obtained are as follows: […]

Series [3] deals with rats. Put plainly: Acute toxicity on mammals by oral route. The settings on record: relative to C (cis E). The format is in vivo. As to the method:
as §1, §2, §3

A short description of series [4]: Acute toxicity on mammals by intravenous route. The settings on record: rat, in vivo, rats, vehicle PEG 300, read-out: LD50 I.R. (intravenous route). The series is classed as in vivo, rats. As to the method: as §1
(§4) type: rats, vehicle: PEG 300.
as §3

For series [5], the system named is rats. Put plainly: Acute toxicity on mammals by intravenous route. The conditions noted are these: relative to C (cis E). The series is classed as in vivo. As to the method:
as §1, §4, §3

The mark [6] stands for this setting: conclusion in words, equivalent notably to C (cis E).

Take `C=CCC1=C(C)C(OC(=O)[C@@H]2[C@@H](C=C(C)C)C2(C)C)CC1=O` (stereo partly drawn) [Bioallethrin]: the “KT50 (time where 50% of the insects were killed)” value in the series on housefly worked out at 10 min.
As a reminder, the LD50 is the dose expected to kill half of the subjects tested. For the compound `COC(=O)/C(F)=C/[C@@H]1[C@@H](C(=O)O[C@H](C#N)c2cccc(Oc3ccccc3)c2)C1(C)C` [Product A, (S) α-cyano-3-phenoxy-benzyl(1R, trans) 2,2-dimethyl-3-[(ΔZ) 2-fluoro-3-oxo-3-methoxy-propenyl]-cyclopropane carboxylate], in the series with housefly, the “KT50 (time where 50% of the insects were killed)” value is 2.7 min. For the same compound, in the series with housefly (setting [6]), the “killing activity on flies” value is reported as “good killing activity”. Also, the percentage of cockroaches knocked down at 100 µg/mL in series [1] stood at 100%. For the same compound, the “killing activity on cockroaches” value in series [1] (setting [6]) is on record as “good killing activity”. Moreover, the 50% lethal dose (LD50) in series [2] was over 2000 mg/kg; in series [4] it was about 10 mg/kg. Besides, in the series with rats [3], the “toxicity on mammals lower than that of C (cis E), orally” value is on record as “at least 20 times”. The “toxicity on mammals lower than that of C (cis E), intravenously” value in the series with rats [5] is “at least 20 times”.
`COC(=O)/C(F)=C\[C@@H]1[C@@H](C(=O)O[C@H](C#N)c2cccc(Oc3ccccc3)c2)C1(C)C` [Product B]: in series [1], the percentage of cockroaches knocked down at 100 µg/mL came out at 47%. Further, the results for the LD50 in series [2] and in series [4] were over 200 mg/kg and 2.5 to 5 mg/kg, respectively.
As for `COC(=O)/C(F)=C\[C@H]1[C@@H](C(=O)O[C@H](C#N)c2cccc(Oc3ccccc3)c2)C1(C)C` [Product C], the “KT50 (time where 50% of the insects were killed)” value with housefly came out at 2.7 min. In addition, the percentage of cockroaches knocked down at 100 µg/mL in series [1] is 95%. The median lethal dose (LD50) in series [2] is about 100 mg/kg; in series [4] it was 0.1 to 0.5 mg/kg.
Turning to `COC(=O)/C(F)=C/[C@H]1[C@@H](C(=O)O[C@H](C#N)c2cccc(Oc3ccccc3)c2)C1(C)C` [Product D], in the series with housefly, the “KT50 (time where 50% of the insects were killed)” value came out at 3.7 min. For the same compound, the percentage of cockroaches knocked down at 500 µg/mL in series [1] stood at 90%. Further, the values for the LD50 in series [2] and in series [4] were over 200 mg/kg and 2.5 to 7.5 mg/kg, respectively.
On to `CC(C)=CC1C(C(=O)OCN2C(=O)C3=C(CCCC3)C2=O)C1(C)C` (stereo not drawn) [TETRAMETHRIN, Tetramethrin], for which, in series [1], the percentage of cockroaches knocked down at 500 µg/mL was 70%.
